Source: ChEMBL document CHEMBL1201862, “PubChem BioAssay data set” (2004)
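Five concentrations, 48 hours, 96-well plates. Here, GI50 denotes the concentration required for 50% inhibition of growth.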 Calls of active or inactive are those of the source. Cut-off read from the data, not from the text of the source: active = GI50 up to about 1.1 µM and inactive = higher.

Columns and labels:
Test in all cases: DTP human tumour cell line panel, 48 h
CCRF-CEM = system: CCRF-CEM
T47D = system: T47D
MDA-MB-231 = system: MDA-MB-231
SK-MEL-2 = system: SK-MEL-2
ACHN = system: ACHN
SF-268 = system: SF-268
MDA-N = system: MDA-N
SR = system: SR
EKVX = system: EKVX
SN12C = system: SN12C
HCT-116 = system: HCT-116
SK-MEL-28 = system: SK-MEL-28
A549 = system: A549
SF-295 = system: SF-295
NCI-H522 = system: NCI-H522
HT-29 = system: HT-29
A498 = system: A498
MCF7 = system: MCF7
SK-OV-3 = system: SK-OV-3
HOP-92 = system: HOP-92

Measured: GI50

CCOC(=O)C1(Cc2ccc3c(c2)CCC3)Cc2cc3c(cc2C1)CCC3
inactive: CCRF-CEM 13.9 µM | T47D 17.7 µM | MDA-MB-231 28.1 µM | SK-MEL-2 32.6 µM | ACHN 33.7 µM | SF-268 53.2 µM | MDA-N 37 µM | SR 23.9 µM | EKVX 47.6 µM | SN12C 27.8 µM | HCT-116 25.5 µM | SK-MEL-28 39.4 µM | A549 35.9 µM | SF-295 25.1 µM | NCI-H522 25.1 µM | HT-29 6.46 µM | A498 37.5 µM | MCF7 16.4 µM | SK-OV-3 24.7 µM

C[N+]1(C)C2Cc3ccccc3C1Cc1ccccc12
inactive: CCRF-CEM > 100 µM | T47D > 100 µM | MDA-MB-231 > 100 µM | SK-MEL-2 > 100 µM | ACHN > 100 µM | SF-268 > 100 µM | MDA-N 78.2 µM | EKVX > 100 µM | SN12C > 100 µM | HCT-116 > 100 µM | SK-MEL-28 > 100 µM | A549 > 100 µM | SF-295 > 100 µM | NCI-H522 > 100 µM | HT-29 > 100 µM | HOP-92 61.1 µM | A498 > 100 µM | MCF7 > 100 µM | SK-OV-3 > 100 µM

O=[N+]([O-])c1cccc(-c2nc(-c3ccccc3)c(-c3ccccc3)[nH]2)c1
inactive: CCRF-CEM > 100 µM | T47D > 100 µM | MDA-MB-231 > 100 µM | SK-MEL-2 > 100 µM | SF-268 > 100 µM | MDA-N > 100 µM | SR > 100 µM | EKVX > 100 µM | SN12C > 100 µM | HCT-116 > 100 µM | SK-MEL-28 > 100 µM | A549 > 100 µM | SF-295 > 100 µM | NCI-H522 > 100 µM | A498 > 100 µM | MCF7 > 100 µM | SK-OV-3 > 100 µM

COc1ccc(Cc2nc3cc(Cl)ccc3o2)cc1
inactive: CCRF-CEM 12.2 µM | T47D 21.3 µM | MDA-MB-231 30.8 µM | SK-MEL-2 23.3 µM | ACHN 59 µM | SF-268 45.4 µM | MDA-N 35 µM | SR 23.7 µM | EKVX 27.2 µM | SN12C 54.5 µM | HCT-116 36.5 µM | SK-MEL-28 37.2 µM | A549 35.4 µM | SF-295 31.3 µM | NCI-H522 21.2 µM | HT-29 30.1 µM | HOP-92 41.2 µM | MCF7 27.9 µM | SK-OV-3 47.3 µM

N/C(=N\Nc1cccc(Cl)c1)c1cccnc1
inactive: CCRF-CEM 18.6 µM | T47D 18.9 µM | MDA-MB-231 81.1 µM | SK-MEL-2 36.9 µM | ACHN 18.9 µM | SF-268 65.3 µM | SR 26 µM | EKVX 40.6 µM | SN12C 60 µM | HCT-116 29.9 µM | SK-MEL-28 72.8 µM | A549 52.7 µM | SF-295 35.7 µM | NCI-H522 29.6 µM | HT-29 27.2 µM | HOP-92 > 68.7 µM | A498 22.2 µM | MCF7 38.7 µM | SK-OV-3 > 100 µM

CC(=O)N(CN1C(=O)CCC1C(=O)O)c1ccccc1Cl (stereo not given)
inactive: CCRF-CEM > 100 µM | T47D > 100 µM | MDA-MB-231 > 100 µM | SK-MEL-2 > 100 µM | ACHN > 100 µM | SF-268 > 100 µM | MDA-N > 100 µM | EKVX > 100 µM | SN12C > 100 µM | HCT-116 > 100 µM | SK-MEL-28 > 100 µM | A549 > 100 µM | SF-295 > 100 µM | NCI-H522 > 100 µM | HT-29 > 100 µM | HOP-92 > 100 µM | A498 > 100 µM | MCF7 > 100 µM | SK-OV-3 > 100 µM

CCCCCCCCCCOC1C(C(C)OCCCN(C)C)OC2OC3(CCCCC3)OC21 (stereo not given)
inactive: CCRF-CEM 10.7 µM | T47D 18.1 µM | MDA-MB-231 15.3 µM | SK-MEL-2 15.8 µM | ACHN 17.1 µM | SF-268 15.3 µM | MDA-N 4.94 µM | EKVX 18.2 µM | SN12C 16.3 µM | HCT-116 13.4 µM | SK-MEL-28 12.2 µM | A549 15.4 µM | SF-295 17.5 µM | NCI-H522 17.9 µM | HT-29 2.41 µM | HOP-92 3.4 µM | MCF7 26.2 µM | SK-OV-3 18.5 µM

Cc1ccc(C[N+](C)(C)N)cc1C
inactive: CCRF-CEM > 10 µM | T47D > 10 µM | MDA-MB-231 > 10 µM | ACHN > 10 µM | SF-268 > 10 µM | MDA-N > 10 µM | EKVX > 10 µM | SN12C > 10 µM | HCT-116 > 10 µM | SK-MEL-28 > 10 µM | A549 > 10 µM | SF-295 > 10 µM | NCI-H522 > 10 µM | HT-29 > 10 µM | HOP-92 > 10 µM | A498 > 10 µM | MCF7 > 10 µM | SK-OV-3 > 10 µM

CCOC(=O)c1c(N2CCCC2)ncn(-c2ccccc2)c1=S
inactive: CCRF-CEM > 100 µM | T47D > 100 µM | SK-MEL-2 > 100 µM | ACHN > 100 µM | SF-268 28.4 µM | MDA-N > 100 µM | SR > 100 µM | EKVX > 100 µM | SN12C > 100 µM | HCT-116 > 100 µM | SK-MEL-28 > 100 µM | A549 > 100 µM | SF-295 > 100 µM | NCI-H522 > 100 µM | HT-29 > 100 µM | HOP-92 > 100 µM | A498 > 100 µM | SK-OV-3 > 100 µM

COc1ccc(-c2c3c(n(C4OC(CO)C(O)C(O)C4O)c(=S)c2C#N)CCCC3)cc1 (stereo not given)
inactive: CCRF-CEM 52 µM | T47D 58.5 µM | MDA-MB-231 > 100 µM | SK-MEL-2 > 100 µM | ACHN > 100 µM | MDA-N > 100 µM | SR > 100 µM | EKVX > 100 µM | SN12C > 100 µM | HCT-116 > 100 µM | A549 > 100 µM | SF-295 > 100 µM | HT-29 > 100 µM | A498 > 100 µM | MCF7 > 100 µM | SK-OV-3 > 100 µM

Cc1ccc(N(C)S(=O)(=O)c2ccccc2)cc1
inactive: CCRF-CEM > 100 µM | T47D 47.9 µM | MDA-MB-231 88.3 µM | SK-MEL-2 > 100 µM | ACHN > 100 µM | SF-268 > 100 µM | MDA-N > 100 µM | SR 84.7 µM | EKVX 97.9 µM | SN12C > 100 µM | HCT-116 86.5 µM | SK-MEL-28 > 100 µM | A549 > 100 µM | SF-295 > 100 µM | NCI-H522 > 100 µM | HT-29 > 100 µM | MCF7 > 100 µM | SK-OV-3 > 100 µM
